Test results published in patent publication US11325929B2 (VivaVisionShanghaiLtd, priority 2017, dated 2022).

System: human T lymphocyte strain Jurkat (ATCC TIB-152) adhesion to ICAM-1
Assay: T-cell adhesion assay (Jurkat cells on ICAM-1 coated plates)
Format: cell-based
Conditions: Homo sapiens; BCECF-AM labelled Jurkat cells, ICAM-1 coated plate, fluorescence readout; read-out: EC50 of cell adhesion and inhibition
Experimental: Cell Adhesion Inhibition Experiments:
T-cell adhesion assay was performed using human T lymphocyte strain Jurkat (ATCC TIB-152): goat Anti-Human IgG (Fc specific) (Sigma 18885) was diluted to 10 μg/ml in PBS, incubated 100 μL per well/96 well plate at 4° C. for 12 hours. Liquid in the well plate was poured off, blocked with 200 μL of 1% BSA at 37° C. for 90 minutes, and washed three times with PBS. 50 μL of 1 μg/mL ICAM-1 (containing 0.1% BSA, 0.01% Tween 20) was added to each well and incubated at 37° C. for 3 hours. The plate was washed 3 times with assay buffer (20 mM HEPES pH 7.6, 140 mM NaCl, 1 mM MgCl2, 1 mM MnCl2, 0.2% glucose).
The Jurkat […] was centrifuged at 100-G, and cells were resuspended in an assay buffer (20 mM HEPES pH 7.6, 140 mM NaCl, 1 mM MgCl2, 1 mM MnCl2, 0.2% glucose) at 37° C.
2 μl of 1 mM of BCECF-AM per mL of the cell suspension was added. Incubated at 37° C. for 30 minutes, stirred up every 10 minutes during the incubation. After the incubation, the cells were washed with assay buffer at 37° C. The cells were suspended to a concentration of 6×10^6/mL.
The inhibitor was diluted to a final concentration of 2× in assay buffer, and 50 μL of the compound solution and […] of Jurkat cells were mixed at room temperature, and incubated at 37° C. for 30 minutes. 100 μL/well of cells and inhibitors were added to the plate and incubated for 1 hour at room temperature. The total fluorescence was measured by a fluorometer: ex: 485; em: 530; cutoff: 530 to measure the total fluorescence. The plate was washed once with the assay buffer and the fluorescence was measured with a fluorometer: ex: 485; em: 530; cutoff. The results are plotted as inhibition-concentration plots and EC50 is calculated using standard methods.

Structure (SMILES) | EC50
CS(=O)(=O)c1cccc(C[C@H](NC(=O)c2c(Cl)cc(/C=C/P(=O)(O)c3cccc(O)c3)cc2Cl)C(=O)O)c1 [Example 51, (2s)-2-(2,6-dichloro-4-(2-(hydroxy(m-hydroxyphenyl)phosphoryl)vinyl)benzamido)-3-(3-(methylsulfonyl)phenyl)propionic Acid] | 4.2 nM
CS(=O)(=O)c1cccc(C[C@H](NC(=O)c2c(Cl)cc(/C=C/P(=O)(c3cccc(O)c3)c3cccc(O)c3)cc2Cl)C(=O)O)c1 [Example 52, (S,E)-2-(4-(2-(bis(3-hydroxyphenyl)phosphonyl)vinyl)-2,6-dichlorobenzamido)-3-(3-(methylsulfonyl)phenyl)propionic Acid] | 74 nM
CS(=O)(=O)c1cccc(C[C@H](NC(=O)c2c(Cl)cc(CCP(=O)(c3cccc(O)c3)c3cccc(O)c3)cc2Cl)C(=O)O)c1 [Example 53, (S,E)-2-(4-(2-(bis(3-hydroxyphenyl)phosphonyl)ethyl)-2,6-dichlorobenzamido)-3-(3-(methylsulfonyl)phenyl)propionic Acid] | 22 nM
CCOP(=O)(/C=C/c1cc(Cl)c(C(=O)N[C@@H](Cc2cccc(S(C)(=O)=O)c2)C(=O)O)c(Cl)c1)c1ccc(O)cc1 (stereo partly shown) [Example 54] | 9.6 nM
CC(C)P(=O)(CCc1cc(Cl)c(C(=O)N[C@@H](Cc2cccc(S(C)(=O)=O)c2)C(=O)O)c(Cl)c1)c1cccc(O)c1 (stereo partly shown) [Example 56] | 63 nM
CS(=O)(=O)c1cccc(C[C@H](NC(=O)c2c(Cl)cc(/C=C/P(=O)(c3cccc(O)c3)C3CC3)cc2Cl)C(=O)O)c1 (stereo partly shown) [Example 57] | 5.3 nM
CP(=O)(/C=C/c1cc(Cl)c(C(=O)N[C@@H](Cc2cccc(S(C)(=O)=O)c2)C(=O)O)c(Cl)c1)c1cccc(O)c1 (stereo partly shown) [Example 58] | 1.9 nM
